Measured values taken from patent US20260000642A1 (Tay Therapeutics Limited, priority 2022, published 2026).

Key:
[1] = Sprague-Dawley rat pharmacokinetics (IV and PO); assay type: in vivo; conditions: male Sprague-Dawley rats, cassette mode, Method 1; for IV T1/2: IV 1 mg/kg; for PO F (%) / bioavailability: PO 5 mg/kg (IV 1 mg/kg); for bioavailability: rat, plasma, read-out: PO F (%)
Excerpt: BET protein inhibitors with a long half-life and good oral bioavailability in in vivo DMPK parameters are promising oral drug candidates. Some of the exemplary compounds of the current disclosure have a long half-life and good oral bioavailability in in vivo DMPK parameters in the Sprague-Dawley rat following intravenous (IV) and oral (PO) dosing. The experimental methods and results (Table 5) are provided hereinafter.
Sprague-Dawley Rat Pharmacokinetics, Method 1
Compounds were formulated in 5% DMSO, 40% PEG-400, 55% Milli-Q water at a concentration of 0.2 mg/mL for IV and at 0.5 mg/mL for PO. Two male Sprague-Dawley rats per arm were dosed with up to 5 compounds in cassette mode, which each compound being dosed at 1 mg/kg IV and 5 mg/kg PO. Blood was sampled at various timepoints and plasma isolated. 50 μL of plasma with 5 μL of blank Sprague-Dawley rat plasma were added to 200 μL of acetonitrile containing IS mixture. The samples were vortexed for 30 s. After centrifugation at 4 degrees Celsius, 3900 rpm for 15 min, the supernatant was diluted 3 times with water. 20 μL of diluted supernatant was injected into the LC/MS/MS system for quantitative analysis and concentration of analyte determined by comparison with matrix matched standard curve. WinNonlin (Phoenix™, version 8.3) or other similar software may be used for pharmacokinetic calculations.

[2] = test system: collagen-induced arthritis in Lewis rats; test: Collagen-induced arthritis (CIA) model in rats: body weight, paw volume, clinical scores, clinical observations; conditions: for Average animal paw volume percent change / Average detailed clinical score, left forelimb / Average detailed clinical score, left hind limb / Average detailed clinical score, right forelimb / Average detailed clinical score, right hind limb / Average detailed clinical score, score / Mean overall clinical score ± SD / animals showing signs of disease (of 8): CIA rats; for Mean animal paw volume (mL) ± SD: group mean, CIA + reference compound (Groups 3, 4); for animals showing signs of disease (of 8): daily P.O. As to Detailed Clinical Scores, left forelimb: key of the grades not given here. As to Detailed Clinical Scores, left hind limb: key of the grades not given here. As to Detailed Clinical Scores, right forelimb: key of the grades not given here. As to Detailed Clinical Scores, right hind limb: key of the grades not given here. As to Detailed Clinical Scores, score: key of the grades not given here.
[3] = test system: collagen-induced arthritis in Lewis rats; test: CIA model: histopathologic analysis of H&E-stained hind limbs; assay type: in vivo, Lewis rat; conditions: CIA rats
Excerpt: Hind limbs were collected following euthanasia, with the left limb being used for H&E staining.
H&E-stained slides of designated tissues from animals were transferred to an independent pathologist for microscopic evaluation (SPFBio). Samples were assigned the histologic grades based on the severity of change from tissue where CIA was not induced. Histology grades assigned were as follows: grade 1 (minimal change), grade 2 (mild change), grade 3 (moderate change), grade 4 (marked change), and grade 5 (severe change).
Moderate inflammation was also associated with increased edema fluid, fibrin, and cellular debris. Marked mixed cell inflammation was characterized by dense, widespread accumulations of neutrophils and macrophages with lesser number of lymphocytes within one or more joint spaces, synovium and periarticular soft tissues. Marked inflammation was also associated with abundant edema fluid, fibrin, and cellular debris.
Marked granulation tissue (pannus) was associated with inflammation and was characterized by widespread fibrovascular connective tissue that expanded/replaced the periarticular soft tissues of one or more joints, extended into/expanded joint spaces, was contiguous with areas of erosion/ulcer in articular cartilage and/or increased eroded surface of bone, and variably extended along the diaphysis.
Instances of minimal increased eroded surface were not associated with fragments of bone contiguous and/or surrounded by granulation tissue. […] In some areas, increased eroded surfaces were contiguous with areas of erosion/ulcer in the articular cartilages. Instance of marked increased eroded surface were often associated with fragments of bone contiguous with and/or surrounded by granulation tissue.
This observation was typically most pronounced at joint margins (transition zone). The ulceration was often associated with inflammation and granulation tissue extending through the defect to the subchondral bone.
Marked increased periosteal bone (periosteal bone formation) was characterized by extensive areas of increased bone matrix and numerous prominent osteoblasts lining trabecular surfaces along the metaphysis and/or diaphysis of one or more bones. In some areas, increased periosteal bone was contiguous with increased eroded surface and/or erosion/ulcer at articular cartilage.

SMILES: CCNC(=O)c1cc(OC(C)c2ccc(Cl)cc2)c(C(=O)NC)[nH]1 (single isomer, unassigned) [Example 18, 3-(1-(4-chlorophenyl)ethoxy)-N^5-ethyl-N^2-methyl-1H-pyrrole-2,5-dicarboxamide]
- IV T1/2 [1]: 66 min
- PO F (%) [1]: 30%

SMILES: CCNC(=O)c1cc(OC(C)c2ccccc2F)c(C(=O)NC)[nH]1 (single isomer, unassigned) [Example 20, N^5-ethyl-3-(1-(2-fluorophenyl)ethoxy)-N^2-methyl-1H-pyrrole-2,5-dicarboxamide]
- IV T1/2 [1]: 24 min
- PO F (%) [1]: 46%

SMILES: CNC(=O)c1[nH]c(C(=O)N[C@H]2CC[C@H](O)CC2)cc1OC(C)c1ccc(Cl)cc1F (single isomer, unassigned) [Example 38, 3-(1-(4-chloro-2-fluorophenyl)ethoxy)-N^5-(trans-4-hydroxycyclohexyl)-N^2-methyl-1H-pyrrole-2,5-dicarboxamide]
- IV T1/2 [1]: 84 min
- PO F (%) [1]: 66%

SMILES: CCNC(=O)c1cc(OC(C)c2ccc(Cl)cc2F)c(C(=O)NC)[nH]1 (single isomer, unassigned) [Example 41, 3-(1-(4-chloro-2-fluorophenyl)ethoxy)-N^5-ethyl-N^2-methyl-1H-pyrrole-2,5-dicarboxamide]
- IV T1/2 [1]: 18 min
- PO F (%) [1]: 69%

SMILES: CNC(=O)c1[nH]c(C(=O)N[C@H]2CC[C@H](O)CC2)cc1OC(C)c1ccccc1 (single isomer, unassigned) [Example 98, N^5-(trans-4-hydroxycyclohexyl)-N^2-methyl-3-(1-phenylethoxy)-1H-pyrrole-2,5-dicarboxamide]
- bioavailability [1]: 31%

SMILES: CNC(=O)c1[nH]c(C(=O)NC2CCC2)cc1OC(C)c1ccccc1 (single isomer, unassigned) [Example 102, N^5-cyclobutyl-N^2-methyl-3-(1-phenylethoxy)-1H-pyrrole-2,5-dicarboxamide]
- bioavailability [1]: 13%

SMILES: C[C@@H]1C[C@H]2[C@@H]3CCC4=CC(=O)C=C[C@]4(C)[C@@]3(F)[C@@H](O)C[C@]2(C)[C@@]1(O)C(=O)CO [Dex]
- Average animal paw volume percent change ([2]; Day 0, L hind paw): 0.00%
- Mean animal paw volume (mL) ± SD ([2]; Day 0, L paw): 1.33 mL
- Average animal paw volume percent change ([2]; Day 0, R hind paw): 0.00%
- Mean animal paw volume (mL) ± SD ([2]; Day 0, R paw): 1.33 mL
- Average detailed clinical score, left forelimb ([2]; Day 0): 0.00
- Average detailed clinical score, left hind limb ([2]; Day 0): 0.00
- Average detailed clinical score, right forelimb ([2]; Day 0): 0.00
- Average detailed clinical score, right hind limb ([2]; Day 0): 0.00
- Average detailed clinical score, score ([2]; Day 0): 0.00
- Mean overall clinical score ± SD ([2]; Day 0): 0 ± 0
- Mean animal paw volume (mL) ± SD ([2]; Day 6, L paw): 1.29 mL
- Mean animal paw volume (mL) ± SD ([2]; Day 6, R paw): 1.29 mL
- Average detailed clinical score, left forelimb ([2]; Day 6): 0.00
- Average detailed clinical score, left hind limb ([2]; Day 6): 0.00
- Average detailed clinical score, right forelimb ([2]; Day 6): 0.00
- Average detailed clinical score, right hind limb ([2]; Day 6): 0.00
- Average detailed clinical score, score ([2]; Day 6): 0.00
- Mean overall clinical score ± SD ([2]; Day 6): 0 ± 0
- Mean animal paw volume (mL) ± SD ([2]; Day 12, L paw): 1.27 mL
- Mean animal paw volume (mL) ± SD ([2]; Day 12, R paw): 1.26 mL
- Average detailed clinical score, left forelimb ([2]; Day 12): 0.00
- Average detailed clinical score, left hind limb ([2]; Day 12): 0.00
- Average detailed clinical score, right forelimb ([2]; Day 12): 0.00
- Average detailed clinical score, right hind limb ([2]; Day 12): 0.00
- Average detailed clinical score, score ([2]; Day 12): 0.00
- Mean overall clinical score ± SD ([2]; Day 12): 0 ± 0
- Mean animal paw volume (mL) ± SD ([2]; Day 13, L paw): 1.28 mL
- Mean animal paw volume (mL) ± SD ([2]; Day 13, R paw): 1.28 mL
- Average detailed clinical score, left forelimb ([2]; Day 13): 0.00
- Average detailed clinical score, left hind limb ([2]; Day 13): 0.00
- Average detailed clinical score, right forelimb ([2]; Day 13): 0.00
- Average detailed clinical score, right hind limb ([2]; Day 13): 0.00
- Average detailed clinical score, score ([2]; Day 13): 0.00
- Mean overall clinical score ± SD ([2]; Day 13): 0 ± 0
- Average animal paw volume percent change ([2]; Day 14, L hind paw): −4.60%
- Mean animal paw volume (mL) ± SD ([2]; Day 14, L paw): 1.27 mL
- Mean animal paw volume (mL) ± SD ([2]; Day 14, R paw): 1.26 mL
- Average detailed clinical score, left forelimb ([2]; Day 14): 0.00
- Average detailed clinical score, left hind limb ([2]; Day 14): 0.00
- Average detailed clinical score, right forelimb ([2]; Day 14): 0.00
- Average detailed clinical score, right hind limb ([2]; Day 14): 0.00
- Average detailed clinical score, score ([2]; Day 14): 0.00
- Mean overall clinical score ± SD ([2]; Day 14): 0 ± 0
- Mean animal paw volume (mL) ± SD ([2]; Day 15, L paw): 1.26 mL
- Mean animal paw volume (mL) ± SD ([2]; Day 15, R paw): 1.26 mL
- Average detailed clinical score, left forelimb ([2]; Day 15): 0.00
- Average detailed clinical score, left hind limb ([2]; Day 15): 0.00
- Average detailed clinical score, right forelimb ([2]; Day 15): 0.00
- Average detailed clinical score, right hind limb ([2]; Day 15): 0.00
- Average detailed clinical score, score ([2]; Day 15): 0.00
- Mean overall clinical score ± SD ([2]; Day 15): 0 ± 0
- Mean animal paw volume (mL) ± SD ([2]; Day 18, L paw): 1.29 mL
- Mean animal paw volume (mL) ± SD ([2]; Day 18, R paw): 1.29 mL
- Average detailed clinical score, left forelimb ([2]; Day 18): 0.00
- Average detailed clinical score, left hind limb ([2]; Day 18): 0.00
- Average detailed clinical score, right forelimb ([2]; Day 18): 0.00
- Average detailed clinical score, right hind limb ([2]; Day 18): 0.00
- Average detailed clinical score, score ([2]; Day 18): 0.00
- Mean overall clinical score ± SD ([2]; Day 18): 0 ± 0
- Mean animal paw volume (mL) ± SD ([2]; Day 19, L paw): 1.29 mL
- Mean animal paw volume (mL) ± SD ([2]; Day 19, R paw): 1.28 mL
- Average detailed clinical score, left forelimb ([2]; Day 19): 0.00
- Average detailed clinical score, left hind limb ([2]; Day 19): 0.00
- Average detailed clinical score, right forelimb ([2]; Day 19): 0.00
- Average detailed clinical score, right hind limb ([2]; Day 19): 0.00
- Average detailed clinical score, score ([2]; Day 19): 0.00
- Mean overall clinical score ± SD ([2]; Day 19): 0 ± 0
- Mean animal paw volume (mL) ± SD ([2]; Day 21, L paw): 1.28 mL
- Mean animal paw volume (mL) ± SD ([2]; Day 21, R paw): 1.29 mL
- Average detailed clinical score, left forelimb ([2]; Day 21): 0.00
- Average detailed clinical score, left hind limb ([2]; Day 21): 0.00
- Average detailed clinical score, right forelimb ([2]; Day 21): 0.00
- Average detailed clinical score, right hind limb ([2]; Day 21): 0.00
- Average detailed clinical score, score ([2]; Day 21): 0.00
- Mean overall clinical score ± SD ([2]; Day 21): 0 ± 0

SMILES: CNC(=O)c1cc(C(=O)NC2CC2)cn(Cc2ccccc2)c1=O [GSK620]
- erosion/ulcer in the articular cartilage ([3]; daily P.O. (Group 4)): mild to moderate
- granulation tissue (pannus) ([3]; daily P.O. (Group 4)): mild to moderate
- increased eroded surface of bone (bone resorption) ([3]; daily P.O. (Group 4)): minimal to moderate
- increased periosteal bone (periosteal bone formation) ([3]; daily P.O. (Group 4)): mild to moderate
- mixed cell inflammation ([3]; daily P.O. (Group 4)): moderate
- pathologic observations after microscopic evaluation (overall) ([3]; daily P.O. for 21 days): at a lower level relative to samples from animals in the CIA-induced group
- animals showing signs of disease (of 8) ([2]; day 12): No animals
- animals showing signs of disease (of 8) ([2]; day 13): 1/8
- animals showing signs of disease (of 8) ([2]; day 14): 5/8
- animals showing signs of disease (of 8) ([2]; day 15): 7/8
- animals showing signs of disease (of 8) ([2]; day 18): all animals
- Detailed Clinical Scores, left forelimb ([2]; Day 0, CIA, per animal ID): 0
- Detailed Clinical Scores, left hind limb ([2]; Day 0, CIA, per animal ID): 0
- Detailed Clinical Scores, right forelimb ([2]; Day 0, CIA, per animal ID): 0
- Detailed Clinical Scores, right hind limb ([2]; Day 0, CIA, per animal ID): 0
- Detailed Clinical Scores, score ([2]; Day 0, CIA, per animal ID): 0
- Detailed Clinical Scores, left forelimb ([2]; Day 6, CIA, per animal ID): 0
- Detailed Clinical Scores, right forelimb ([2]; Day 6, CIA, per animal ID): 0
- Detailed Clinical Scores, left forelimb ([2]; Day 12, CIA, per animal ID): 0
- Detailed Clinical Scores, right forelimb ([2]; Day 12, CIA, per animal ID): 0
